Experiments:
Assay in all cases: Test E pre-/postemergence greenhouse test, plant response rating 0-100
Type in all cases: in vivo
[1] = test system: dayflower (Virginia (VA) dayflower, Commelina virginica); details: Postemergence, scale 0 to 100
Method in brief: (§1)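 Ratings (0 no effect to 100 complete control) came from visual comparison with untreated controls 14 to 21 days after treatment. Compounds in a surfactant-containing non-phytotoxic solvent were applied preemergence to seeded silt loam and postemergence to plants at the 1- to 4-leaf stage.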

corn (Zea mays) = details: Postemergence, scale 0 to 100
Method in brief: as §1

[2] = test system: sandbur (southern sandbur, Cenchrus echinatus); details: Postemergence, scale 0 to 100
Method in brief: as §1

soybean (Glycine max) = details: Postemergence, scale 0 to 100
Method in brief: as §1

[3] = test system: barnyardgrass (Echinochloa crus-galli); details: Postemergence, scale 0 to 100
Method in brief: as §1

[4] = test system: Italian ryegrass (Lolium multiflorum); details: Postemergence, scale 0 to 100
Method in brief: as §1

[5] = test system: wild poinsettia (Euphorbia heterophylla); details: Postemergence, scale 0 to 100
Method in brief: as §1

[6] = test system: palmer pigweed (Amaranthus palmeri); details: Postemergence, scale 0 to 100
Method in brief: as §1

[7] = test system: arrowleaf sida (Sida rhombifolia); details: Postemergence
Method in brief: as §1

[8] = test system: waterhemp (common waterhemp, Amaranthus rudis); details: Postemergence, scale 0 to 100
Method in brief: as §1

[9] = test system: Brazilian crabgrass (Digitaria horizontalis); details: Postemergence, scale 0 to 100
Method in brief: as §1

[10] = test system: hairy beggarticks (Bidens pilosa); details: Postemergence, scale 0 to 100
Method in brief: as §1

For `Cn1cc(C(=O)c2cccs2)c(-c2cc(Cl)cc(Cl)c2)n1` [Compound 17], the “Plant response rating, Dayflower, VA” value ([1]; 31 g ai/ha) was 0, the “Plant response rating, Dayflower, VA” value ([1]; 62 g ai/ha) was 0 and the “Plant response rating, Dayflower, VA” value ([1]; 125 g ai/ha) was 0. The “Plant response rating, Dayflower, VA” value ([1]; 250 g ai/ha) was 0, the “Plant response rating, Dayflower, VA” value ([1]; 500 g ai/ha) was 0 and the “Plant response rating, Corn” value (corn (Zea mays); 31 g ai/ha) was 0. The “Plant response rating, Corn” value (corn (Zea mays); 62 g ai/ha) was 0, the “Plant response rating, Corn” value (corn (Zea mays); 125 g ai/ha) was 0 and the “Plant response rating, Corn” value (corn (Zea mays); 250 g ai/ha) was 0. For the same molecule, the “Plant response rating, Corn” value (corn (Zea mays); 500 g ai/ha) was 0, the “Plant response rating, Sandbur” value ([2]; 31 g ai/ha) was 0 and the “Plant response rating, Sandbur” value ([2]; 62 g ai/ha) was 0. For the same molecule, the “Plant response rating, Sandbur” value ([2]; 125 g ai/ha) was 0, the “Plant response rating, Sandbur” value ([2]; 250 g ai/ha) was 0 and the “Plant response rating, Sandbur” value ([2]; 500 g ai/ha) was 10. The “Plant response rating, Soybean” value (soybean (Glycine max); 31 g ai/ha) was 0, the “Plant response rating, Soybean” value (soybean (Glycine max); 62 g ai/ha) was 0 and the “Plant response rating, Soybean” value (soybean (Glycine max); 125 g ai/ha) was 0. The “Plant response rating, Soybean” value (soybean (Glycine max); 250 g ai/ha) was 15, the “Plant response rating, Soybean” value (soybean (Glycine max); 500 g ai/ha) was 20 and the “Plant response rating, Barnyardgrass” value ([3]; 31 g ai/ha) was 0. For the same molecule, the “Plant response rating, Barnyardgrass” value ([3]; 62 g ai/ha) was 0, the “Plant response rating, Barnyardgrass” value ([3]; 125 g ai/ha) was 0 and the “Plant response rating, Barnyardgrass” value ([3]; 250 g ai/ha) was 0. For the same molecule, the “Plant response rating, Barnyardgrass” value ([3]; 500 g ai/ha) was 20, the “Plant response rating, Ryegrass, Italian” value ([4]; 31 g ai/ha) was 0 and the “Plant response rating, Ryegrass, Italian” value ([4]; 62 g ai/ha) was 0. The “Plant response rating, Ryegrass, Italian” value ([4]; 125 g ai/ha) was 0, the “Plant response rating, Ryegrass, Italian” value ([4]; 250 g ai/ha) was 0 and the “Plant response rating, Ryegrass, Italian” value ([4]; 500 g ai/ha) was 0. For the same molecule, the “Plant response rating, Poinsettia, Wild” value ([5]; 31 g ai/ha) was 0, the “Plant response rating, Poinsettia, Wild” value ([5]; 62 g ai/ha) was 0 and the “Plant response rating, Poinsettia, Wild” value ([5]; 125 g ai/ha) was 0. For the same molecule, the “Plant response rating, Poinsettia, Wild” value ([5]; 250 g ai/ha) was 20, the “Plant response rating, Poinsettia, Wild” value ([5]; 500 g ai/ha) was 30 and the “Plant response rating, Pigweed, Palmer” value ([6]; 31 g ai/ha) was 60. The “Plant response rating, Pigweed, Palmer” value ([6]; 62 g ai/ha) was 70, the “Plant response rating, Pigweed, Palmer” value ([6]; 125 g ai/ha) was 80 and the “Plant response rating, Pigweed, Palmer” value ([6]; 250 g ai/ha) was 85. The “Plant response rating, Pigweed, Palmer” value ([6]; 500 g ai/ha) was 95, the “Plant response rating, Arrowleaf Sida” value ([7]; 31 g ai/ha, scale 0 to 100) was 60 and the “Plant response rating, Arrowleaf Sida” value ([7]; 62 g ai/ha, scale 0 to 100) was 70. For the same molecule, the “Plant response rating, Arrowleaf Sida” value ([7]; 125 g ai/ha, scale 0 to 100) was 75, the “Plant response rating, Arrowleaf Sida” value ([7]; 250 g ai/ha, scale 0 to 100) was 80 and the “Plant response rating, Arrowleaf Sida” value ([7]; 500 g ai/ha, scale 0 to 100 (0 no effect, 100 complete control)) was 85. For the same molecule, the “Plant response rating, Waterhemp” value ([8]; 31 g ai/ha) was 50, the “Plant response rating, Waterhemp” value ([8]; 62 g ai/ha) was 80 and the “Plant response rating, Waterhemp” value ([8]; 125 g ai/ha) was 85. The “Plant response rating, Waterhemp” value ([8]; 250 g ai/ha) was 90, the “Plant response rating, Waterhemp” value ([8]; 500 g ai/ha) was 95 and the “Plant response rating, Crabgrass, Brazil” value ([9]; 31 g ai/ha) was 0. The “Plant response rating, Crabgrass, Brazil” value ([9]; 62 g ai/ha) was 0, the “Plant response rating, Crabgrass, Brazil” value ([9]; 125 g ai/ha) was 0 and the “Plant response rating, Crabgrass, Brazil” value ([9]; 250 g ai/ha) was 0. For the same molecule, the “Plant response rating, Crabgrass, Brazil” value ([9]; 500 g ai/ha) was 15, the “Plant response rating, Beggarticks” value ([10]; 31 g ai/ha) was 5 and the “Plant response rating, Beggarticks” value ([10]; 62 g ai/ha) was 25. For the same molecule, the “Plant response rating, Beggarticks” value ([10]; 125 g ai/ha) was 35, the “Plant response rating, Beggarticks” value ([10]; 250 g ai/ha) was 40 and the “Plant response rating, Beggarticks” value ([10]; 500 g ai/ha) was 60.

— patent publication US10167262B2, “Herbicidal substituted 3-arylpyrazoles” (FMC CORPORATION, priority 2014, dated 2019)
